Source: ChEMBL document CHEMBL4507275, “Data for DCP probe BI-2545” (2021)

What was measured:
[1] = molecular target: Serine/threonine-protein kinase 10 (Homo sapiens) (UniProt O94804); details: Compound concentration 1000.0 nM
[2] = test system: Proto-oncogene tyrosine-protein kinase receptor Ret (Homo sapiens), P07949 [M918T]; details: Compound concentration 1000.0 nM
[3] = molecular target: Serine/threonine-protein kinase LATS2 (Homo sapiens) (UniProt Q9NRM7); details: Compound concentration 1000.0 nM
[4] = molecular target: Bone morphogenetic protein receptor type-2 (Homo sapiens) (UniProt Q13873); details: Compound concentration 1000.0 nM
Chain of Bone morphogenetic protein receptor type-2 (Homo sapiens) (Q13873 whole entry): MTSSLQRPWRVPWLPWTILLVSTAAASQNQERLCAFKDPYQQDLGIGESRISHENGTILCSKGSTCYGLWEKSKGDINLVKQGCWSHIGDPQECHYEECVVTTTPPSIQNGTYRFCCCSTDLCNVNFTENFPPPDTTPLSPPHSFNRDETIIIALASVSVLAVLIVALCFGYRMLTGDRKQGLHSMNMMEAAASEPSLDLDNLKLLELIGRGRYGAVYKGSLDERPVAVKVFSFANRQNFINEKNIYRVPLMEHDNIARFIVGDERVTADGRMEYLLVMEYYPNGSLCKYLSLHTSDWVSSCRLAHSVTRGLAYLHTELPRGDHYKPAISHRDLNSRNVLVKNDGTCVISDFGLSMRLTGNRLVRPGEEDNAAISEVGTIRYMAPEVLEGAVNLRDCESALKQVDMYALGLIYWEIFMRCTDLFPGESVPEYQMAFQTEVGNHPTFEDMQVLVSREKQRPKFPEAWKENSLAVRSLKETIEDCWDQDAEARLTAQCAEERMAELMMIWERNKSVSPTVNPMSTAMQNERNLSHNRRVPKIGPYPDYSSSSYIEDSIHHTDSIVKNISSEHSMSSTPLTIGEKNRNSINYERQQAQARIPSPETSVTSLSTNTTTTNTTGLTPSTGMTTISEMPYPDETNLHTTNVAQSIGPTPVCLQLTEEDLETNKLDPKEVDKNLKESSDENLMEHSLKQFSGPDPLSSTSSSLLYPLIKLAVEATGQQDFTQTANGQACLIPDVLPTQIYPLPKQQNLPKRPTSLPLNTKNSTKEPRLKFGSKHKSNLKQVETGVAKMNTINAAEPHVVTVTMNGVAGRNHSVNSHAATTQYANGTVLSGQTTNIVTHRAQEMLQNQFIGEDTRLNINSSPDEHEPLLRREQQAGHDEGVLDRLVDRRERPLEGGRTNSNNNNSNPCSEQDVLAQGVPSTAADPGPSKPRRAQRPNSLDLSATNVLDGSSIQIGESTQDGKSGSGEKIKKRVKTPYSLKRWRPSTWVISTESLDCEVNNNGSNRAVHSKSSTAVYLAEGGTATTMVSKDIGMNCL

[5] = molecular target: Activin receptor type-2A (Homo sapiens) (UniProt P27037); details: Compound concentration 1000.0 nM
Chain of Activin receptor type-2A (Homo sapiens) (P27037 whole entry): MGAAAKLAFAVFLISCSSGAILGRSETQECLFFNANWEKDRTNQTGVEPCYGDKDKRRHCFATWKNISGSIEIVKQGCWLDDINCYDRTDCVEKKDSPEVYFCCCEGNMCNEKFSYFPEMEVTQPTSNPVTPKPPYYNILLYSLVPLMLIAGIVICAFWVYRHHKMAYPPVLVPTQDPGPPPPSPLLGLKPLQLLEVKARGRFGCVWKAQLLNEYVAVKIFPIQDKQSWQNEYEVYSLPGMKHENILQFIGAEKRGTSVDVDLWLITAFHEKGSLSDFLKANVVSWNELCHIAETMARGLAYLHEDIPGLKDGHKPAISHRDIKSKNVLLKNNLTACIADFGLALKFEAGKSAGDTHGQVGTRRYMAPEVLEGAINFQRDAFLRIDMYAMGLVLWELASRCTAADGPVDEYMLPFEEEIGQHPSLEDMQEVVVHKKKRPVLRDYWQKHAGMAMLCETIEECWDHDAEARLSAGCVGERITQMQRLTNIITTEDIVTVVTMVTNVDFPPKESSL

[6] = molecular target: Serine/threonine-protein kinase PAK 6 (Homo sapiens) (UniProt Q9NQU5); details: Compound concentration 1000.0 nM
[7] = molecular target: cAMP-dependent protein kinase catalytic subunit PRKX (Homo sapiens) (UniProt P51817); details: Compound concentration 1000.0 nM
[8] = molecular target: Dual specificity protein kinase CLK4 (Homo sapiens) (UniProt Q9HAZ1); details: Compound concentration 1000.0 nM
[9] = molecular target: Serine/threonine-protein kinase PknB (Mycobacterium tuberculosis) (UniProt P9WI81); details: Compound concentration 1000.0 nM
[10] = molecular target: Mitogen-activated protein kinase kinase kinase 4 (Homo sapiens) (UniProt Q9Y6R4); details: Compound concentration 1000.0 nM
[11] = molecular target: G protein-coupled receptor kinase 4 (Homo sapiens) (UniProt P32298); details: Compound concentration 1000.0 nM
[12] = molecular target: 5-hydroxytryptamine receptor 1B (Homo sapiens) (UniProt P28222); details: Compound concentration 10.0 uM
[13] = molecular target: Dual specificity tyrosine-phosphorylation-regulated kinase 2 (Homo sapiens) (UniProt Q92630); details: Compound concentration 1000.0 nM
[14] = molecular target: Ephrin type-B receptor 4 (Homo sapiens) (UniProt P54760); details: Compound concentration 1000.0 nM
[15] = molecular target: Myosin light chain kinase (Homo sapiens) (UniProt Q32MK0); details: Compound concentration 1000.0 nM
[16] = molecular target: Ephrin type-A receptor 7 (Homo sapiens) (UniProt Q15375); details: Compound concentration 1000.0 nM
[17] = molecular target: Bone morphogenetic protein receptor type-1A (Homo sapiens) (UniProt P36894); details: Compound concentration 1000.0 nM
[18] = molecular target: Serine/threonine-protein kinase MRCK gamma (Homo sapiens) (UniProt Q6DT37); details: Compound concentration 1000.0 nM
[19] = test system: Phosphatidylinositol 4,5-bisphosphate 3-kinase catalytic subunit alpha isoform (Homo sapiens), P42336 [E545A]; details: Compound concentration 1000.0 nM
Chain of Phosphatidylinositol 4,5-bisphosphate 3-kinase catalytic subunit alpha isoform (Homo sapiens), P42336 [E545A] (P42336 whole entry E545A, canonical isoform): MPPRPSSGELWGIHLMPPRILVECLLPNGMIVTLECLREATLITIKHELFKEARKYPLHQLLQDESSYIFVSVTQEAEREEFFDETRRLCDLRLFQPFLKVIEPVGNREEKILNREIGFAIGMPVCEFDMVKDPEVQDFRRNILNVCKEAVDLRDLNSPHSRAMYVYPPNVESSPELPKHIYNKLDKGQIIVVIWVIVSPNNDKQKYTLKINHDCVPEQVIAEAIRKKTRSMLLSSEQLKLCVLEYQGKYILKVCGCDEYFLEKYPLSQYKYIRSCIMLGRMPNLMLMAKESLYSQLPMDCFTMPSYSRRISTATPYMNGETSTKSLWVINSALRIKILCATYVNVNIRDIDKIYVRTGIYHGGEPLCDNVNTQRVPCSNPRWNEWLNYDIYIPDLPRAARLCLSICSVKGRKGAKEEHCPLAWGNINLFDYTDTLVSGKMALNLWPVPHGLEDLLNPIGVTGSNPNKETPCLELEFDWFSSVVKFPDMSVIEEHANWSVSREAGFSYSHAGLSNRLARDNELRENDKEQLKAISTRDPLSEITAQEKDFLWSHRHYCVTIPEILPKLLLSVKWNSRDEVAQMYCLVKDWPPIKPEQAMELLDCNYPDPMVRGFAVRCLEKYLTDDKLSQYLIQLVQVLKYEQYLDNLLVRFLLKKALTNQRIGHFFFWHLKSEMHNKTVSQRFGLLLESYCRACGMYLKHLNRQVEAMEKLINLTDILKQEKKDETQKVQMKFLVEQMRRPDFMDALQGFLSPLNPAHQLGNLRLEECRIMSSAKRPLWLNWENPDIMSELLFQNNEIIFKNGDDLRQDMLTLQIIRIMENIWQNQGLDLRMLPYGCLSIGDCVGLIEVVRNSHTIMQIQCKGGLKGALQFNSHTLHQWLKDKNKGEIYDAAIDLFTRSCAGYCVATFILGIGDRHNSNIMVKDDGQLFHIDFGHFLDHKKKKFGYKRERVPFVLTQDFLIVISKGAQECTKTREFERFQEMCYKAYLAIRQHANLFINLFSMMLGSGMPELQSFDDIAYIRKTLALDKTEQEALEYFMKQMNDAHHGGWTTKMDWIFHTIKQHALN

[20] = molecular target: Serine/threonine-protein kinase pim-2 (Homo sapiens) (UniProt Q9P1W9); details: Compound concentration 1000.0 nM
[21] = test system: ALK tyrosine kinase receptor (Homo sapiens), Q9UM73 [C1156Y]; details: Compound concentration 1000.0 nM
[22] = molecular target: G protein-coupled receptor kinase 3 (Homo sapiens) (UniProt P35626); details: Compound concentration 1000.0 nM
[23] = molecular target: Alpha-1D adrenergic receptor (Homo sapiens) (UniProt P25100); details: Compound concentration 10.0 uM
Chain of Alpha-1D adrenergic receptor (Homo sapiens) (P25100 whole entry): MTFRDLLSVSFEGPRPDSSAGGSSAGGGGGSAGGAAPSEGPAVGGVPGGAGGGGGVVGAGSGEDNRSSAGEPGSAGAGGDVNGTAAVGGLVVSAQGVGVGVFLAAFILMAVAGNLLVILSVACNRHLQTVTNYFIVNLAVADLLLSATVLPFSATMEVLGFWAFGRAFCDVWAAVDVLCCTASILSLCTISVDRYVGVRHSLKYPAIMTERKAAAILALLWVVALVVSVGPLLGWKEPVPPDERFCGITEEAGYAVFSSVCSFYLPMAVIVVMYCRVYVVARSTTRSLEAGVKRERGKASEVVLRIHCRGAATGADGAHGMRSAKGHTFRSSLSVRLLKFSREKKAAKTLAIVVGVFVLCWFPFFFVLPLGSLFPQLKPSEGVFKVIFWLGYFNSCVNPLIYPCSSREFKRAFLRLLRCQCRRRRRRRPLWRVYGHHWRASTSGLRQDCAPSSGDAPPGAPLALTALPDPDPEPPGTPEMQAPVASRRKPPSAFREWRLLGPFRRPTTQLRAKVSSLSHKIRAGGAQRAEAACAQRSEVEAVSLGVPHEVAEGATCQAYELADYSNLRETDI

[24] = molecular target: Muscarinic acetylcholine receptor M5 (Homo sapiens) (UniProt P08912); details: Compound concentration 10.0 uM
[25] = test system: Epidermal growth factor receptor (Homo sapiens), P00533 [L858R,T790M]; details: Compound concentration 1000.0 nM
[26] = molecular target: Histamine H1 receptor (Homo sapiens) (UniProt P35367); details: Compound concentration 10.0 uM
[27] = molecular target: Serine/threonine-protein kinase TAO3 (Homo sapiens) (UniProt Q9H2K8); details: Compound concentration 1000.0 nM
[28] = molecular target: Tyrosine-protein kinase receptor TYRO3 (Homo sapiens) (UniProt Q06418); details: Compound concentration 1000.0 nM
[29] = molecular target: Receptor-interacting serine/threonine-protein kinase 1 (Homo sapiens) (UniProt Q13546); details: Compound concentration 1000.0 nM
[30] = molecular target: LIM domain kinase 1 (Homo sapiens) (UniProt P53667); details: Compound concentration 1000.0 nM
[31] = molecular target: Ribosomal protein S6 kinase alpha-6 (Homo sapiens) (UniProt Q9UK32); details: Compound concentration 1000.0 nM
Chain of Ribosomal protein S6 kinase alpha-6 (Homo sapiens) (Q9UK32 whole entry): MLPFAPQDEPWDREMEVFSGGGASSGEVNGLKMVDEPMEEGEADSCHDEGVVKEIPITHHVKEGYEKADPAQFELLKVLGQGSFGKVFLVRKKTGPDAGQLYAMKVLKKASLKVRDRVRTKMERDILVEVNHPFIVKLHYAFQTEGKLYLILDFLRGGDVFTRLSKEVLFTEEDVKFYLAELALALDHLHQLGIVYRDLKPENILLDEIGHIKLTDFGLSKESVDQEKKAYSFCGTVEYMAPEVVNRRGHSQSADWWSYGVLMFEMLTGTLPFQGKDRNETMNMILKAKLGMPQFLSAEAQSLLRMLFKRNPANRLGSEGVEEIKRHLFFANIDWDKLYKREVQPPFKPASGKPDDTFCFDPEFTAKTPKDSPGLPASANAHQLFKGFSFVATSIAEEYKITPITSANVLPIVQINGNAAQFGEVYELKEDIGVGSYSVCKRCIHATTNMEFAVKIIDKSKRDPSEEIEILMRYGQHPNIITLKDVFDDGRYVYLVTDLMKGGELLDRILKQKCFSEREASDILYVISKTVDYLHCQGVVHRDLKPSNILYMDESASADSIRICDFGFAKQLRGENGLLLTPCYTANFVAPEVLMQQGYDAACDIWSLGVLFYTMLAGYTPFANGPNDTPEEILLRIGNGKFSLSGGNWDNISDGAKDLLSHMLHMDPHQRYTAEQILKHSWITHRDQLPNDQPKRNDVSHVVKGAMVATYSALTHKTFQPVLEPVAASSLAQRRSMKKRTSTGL

[32] = molecular target: Mitogen-activated protein kinase 9 (Homo sapiens) (UniProt P45984); details: Compound concentration 1000.0 nM
[33] = molecular target: Cyclin-dependent kinase-like 3 (Homo sapiens) (UniProt Q8IVW4); details: Compound concentration 1000.0 nM
[34] = molecular target: Mitogen-activated protein kinase kinase kinase kinase 2 (Homo sapiens) (UniProt Q12851); details: Compound concentration 1000.0 nM
[35] = molecular target: Tyrosine-protein kinase ABL1 (Homo sapiens) (UniProt P00519); details: Compound concentration 1000.0 nM
[36] = molecular target: Serine/threonine-protein kinase DCLK1 (Homo sapiens) (UniProt O15075); details: Compound concentration 1000.0 nM
[37] = molecular target: 5'-AMP-activated protein kinase catalytic subunit alpha-1 (Homo sapiens) (UniProt Q13131); details: Compound concentration 1000.0 nM
[38] = molecular target: Myosin light chain kinase family member 4 (Homo sapiens) (UniProt Q86YV6); details: Compound concentration 1000.0 nM
[39] = molecular target: MAP kinase-activated protein kinase 5 (Homo sapiens) (UniProt Q8IW41); details: Compound concentration 1000.0 nM
[40] = molecular target: Protein-tyrosine kinase 6 (Homo sapiens) (UniProt Q13882); details: Compound concentration 1000.0 nM
[41] = molecular target: Mitogen-activated protein kinase kinase kinase 11 (Homo sapiens) (UniProt Q16584); details: Compound concentration 1000.0 nM
Chain of Mitogen-activated protein kinase kinase kinase 11 (Homo sapiens) (Q16584 whole entry, looked up): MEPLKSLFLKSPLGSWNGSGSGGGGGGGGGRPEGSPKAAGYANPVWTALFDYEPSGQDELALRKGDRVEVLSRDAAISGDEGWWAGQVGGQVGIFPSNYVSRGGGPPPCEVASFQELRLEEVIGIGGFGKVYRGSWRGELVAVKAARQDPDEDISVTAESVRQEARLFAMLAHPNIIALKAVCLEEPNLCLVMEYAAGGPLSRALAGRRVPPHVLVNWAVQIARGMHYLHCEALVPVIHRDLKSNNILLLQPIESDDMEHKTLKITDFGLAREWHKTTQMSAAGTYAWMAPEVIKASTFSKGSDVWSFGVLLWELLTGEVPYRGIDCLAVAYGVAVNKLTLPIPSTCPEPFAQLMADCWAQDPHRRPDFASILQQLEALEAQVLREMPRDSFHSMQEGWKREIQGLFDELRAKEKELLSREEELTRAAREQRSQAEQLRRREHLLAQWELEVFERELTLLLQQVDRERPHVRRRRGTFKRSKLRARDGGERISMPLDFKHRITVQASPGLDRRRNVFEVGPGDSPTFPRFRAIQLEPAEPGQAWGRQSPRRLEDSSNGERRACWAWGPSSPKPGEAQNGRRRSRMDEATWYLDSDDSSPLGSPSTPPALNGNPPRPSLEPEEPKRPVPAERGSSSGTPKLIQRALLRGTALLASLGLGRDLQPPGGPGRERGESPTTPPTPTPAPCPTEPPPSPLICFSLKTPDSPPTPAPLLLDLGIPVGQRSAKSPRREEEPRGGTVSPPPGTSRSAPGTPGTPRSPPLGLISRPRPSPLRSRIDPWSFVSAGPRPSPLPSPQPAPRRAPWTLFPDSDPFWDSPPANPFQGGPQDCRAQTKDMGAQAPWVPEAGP

[42] = molecular target: Serine/threonine-protein kinase PAK 4 (Homo sapiens) (UniProt O96013); details: Compound concentration 1000.0 nM
[43] = molecular target: Cyclin-dependent kinase 13 (Homo sapiens) (UniProt Q14004); details: Compound concentration 1000.0 nM
[44] = molecular target: Calcium/calmodulin-dependent protein kinase type II subunit gamma (Homo sapiens) (UniProt Q13555); details: Compound concentration 1000.0 nM
[45] = test system: Epidermal growth factor receptor (Homo sapiens), P00533 [G719C]; details: Compound concentration 1000.0 nM

Q: For `Cc1nccc(COC(=O)N2C[C@@H]3[C@@H](CNC(=O)c4ccc5[nH]nnc5c4)[C@@H]3C2)n1` [BI 3017], which residual activity [1] is on record?
A: The residual activity was 100%.

Q: And the residual activity [2]?
A: Its residual activity is 100%.

Q: What about the residual activity [3] of the same compound?
A: The residual activity was 97%.

Q: What about the residual activity [4] of the same compound?
A: Its residual activity is 81%.

Q: And the residual activity [5]?
A: The residual activity was 69%.

Q: What about the residual activity [6] of the same compound?
A: The residual activity was 95%.

Q: What about the residual activity [7] of the same compound?
A: Its residual activity is 100%.

Q: And the residual activity [8]?
A: Its residual activity is 97%.

Q: And the residual activity [9]?
A: Its residual activity is 100%.

Q: And the residual activity [10]?
A: Its residual activity is 94%.

Q: And the residual activity [11]?
A: The residual activity was 100%.

Q: What about the inhibition [12] of the same compound?
A: The inhibition was 4.4%.

Q: What about the residual activity [13] of the same compound?
A: Its residual activity is 94%.

Q: And the residual activity [14]?
A: The residual activity was 100%.

Q: And the residual activity [15]?
A: Its residual activity is 97%.

Q: And the residual activity [16]?
A: The residual activity was 89%.

Q: What about the residual activity [17] of the same compound?
A: The residual activity was 85%.

Q: What about the residual activity [18] of the same compound?
A: Its residual activity is 92%.

Q: And the residual activity [19]?
A: Its residual activity is 87%.

Q: What about the residual activity [20] of the same compound?
A: Its residual activity is 0%.

Q: What about the residual activity [21] of the same compound?
A: The residual activity was 76%.

Q: What about the residual activity [22] of the same compound?
A: Its residual activity is 70%.

Q: What about the inhibition [23] of the same compound?
A: Its inhibition is -6.43%.

Q: And the inhibition [24]?
A: The inhibition was -9.7%.

Q: And the residual activity [25]?
A: The residual activity was 100%.

Q: What about the inhibition [26] of the same compound?
A: Its inhibition is 18.1%.

Q: And the residual activity [27]?
A: The residual activity was 83%.

Q: And the residual activity [28]?
A: Its residual activity is 100%.

Q: What about the residual activity [29] of the same compound?
A: Its residual activity is 86%.

Q: What about the residual activity [30] of the same compound?
A: Its residual activity is 100%.

Q: And the residual activity [31]?
A: Its residual activity is 100%.

Q: And the residual activity [32]?
A: Its residual activity is 95%.

Q: And the residual activity [33]?
A: The residual activity was 99%.

Q: And the residual activity [34]?
A: The residual activity was 84%.

Q: What about the residual activity [35] of the same compound?
A: Its residual activity is 95%.

Q: And the residual activity [36]?
A: The residual activity was 90%.

Q: And the residual activity [37]?
A: Its residual activity is 92%.

Q: And the residual activity [38]?
A: Its residual activity is 89%.

Q: What about the residual activity [39] of the same compound?
A: Its residual activity is 97%.

Q: And the residual activity [40]?
A: Its residual activity is 100%.

Q: And the residual activity [41]?
A: Its residual activity is 100%.

Q: What about the residual activity [42] of the same compound?
A: The residual activity was 100%.

Q: What about the residual activity [43] of the same compound?
A: The residual activity was 82%.

Q: What about the residual activity [44] of the same compound?
A: Its residual activity is 100%.

Q: What about the residual activity [45] of the same compound?
A: Its residual activity is 100%.

Q: `O=C(NC[C@@H]1[C@H]2CN(C(=O)OCc3cc(C(F)(F)F)cc(C(F)(F)F)c3)C[C@@H]12)c1ccc2[nH]nnc2c1` [BI 2545] was tested. Which residual activity [1] did it give?
A: Its residual activity is 100%.

Q: What about the residual activity [2] of the same compound?
A: Its residual activity is 100%.

Q: And the residual activity [3]?
A: Its residual activity is 86%.

Q: And the residual activity [4]?
A: Its residual activity is 90%.

Q: And the residual activity [5]?
A: The residual activity was 92%.

Q: And the residual activity [6]?
A: The residual activity was 93%.

Q: And the residual activity [7]?
A: Its residual activity is 86%.

Q: What about the residual activity [8] of the same compound?
A: The residual activity was 98%.

Q: What about the residual activity [9] of the same compound?
A: The residual activity was 80%.

Q: What about the residual activity [10] of the same compound?
A: Its residual activity is 91%.

Q: And the residual activity [11]?
A: The residual activity was 100%.

Q: And the inhibition [12]?
A: The inhibition was 17.9%.

Q: And the residual activity [13]?
A: The residual activity was 77%.

Q: What about the residual activity [14] of the same compound?
A: Its residual activity is 100%.

Q: What about the residual activity [15] of the same compound?
A: Its residual activity is 98%.

Q: What about the residual activity [16] of the same compound?
A: The residual activity was 96%.

Q: And the residual activity [17]?
A: Its residual activity is 100%.

Q: And the residual activity [18]?
A: The residual activity was 90%.

Q: And the residual activity [19]?
A: The residual activity was 96%.

Q: And the residual activity [20]?
A: The residual activity was 100%.

Q: And the residual activity [21]?
A: Its residual activity is 94%.

Q: And the residual activity [22]?
A: The residual activity was 90%.

Q: What about the inhibition [23] of the same compound?
A: The inhibition was -1.41%.

Q: And the inhibition [24]?
A: The inhibition was 15.3%.

Q: And the residual activity [25]?
A: Its residual activity is 80%.

Q: And the inhibition [26]?
A: The inhibition was 12.8%.

Q: And the residual activity [27]?
A: Its residual activity is 88%.

Q: What about the residual activity [28] of the same compound?
A: The residual activity was 75%.

Q: What about the residual activity [29] of the same compound?
A: The residual activity was 89%.

Q: What about the residual activity [30] of the same compound?
A: Its residual activity is 100%.

Q: What about the residual activity [31] of the same compound?
A: Its residual activity is 67%.

Q: And the residual activity [32]?
A: The residual activity was 100%.

Q: And the residual activity [33]?
A: Its residual activity is 87%.

Q: What about the residual activity [34] of the same compound?
A: Its residual activity is 92%.

Q: And the residual activity [35]?
A: Its residual activity is 100%.

Q: What about the residual activity [36] of the same compound?
A: The residual activity was 94%.

Q: And the residual activity [37]?
A: The residual activity was 100%.

Q: And the residual activity [38]?
A: The residual activity was 100%.

Q: What about the residual activity [39] of the same compound?
A: Its residual activity is 86%.

Q: What about the residual activity [40] of the same compound?
A: Its residual activity is 96%.

Q: And the residual activity [41]?
A: The residual activity was 99%.

Q: And the residual activity [42]?
A: Its residual activity is 100%.

Q: What about the residual activity [43] of the same compound?
A: The residual activity was 85%.

Q: And the residual activity [44]?
A: The residual activity was 85%.

Q: And the residual activity [45]?
A: The residual activity was 100%.
